Results reported in patent US20040082664A1, “Derivatives of hydroxyphenyl, a method for preparing thereof and their pharmaceutical composition” (priority 2002, published 2004).
pIC50: −log10 of the molar value.

Legend:
[1] = biological target: T1, GST-fused lck SH2 domain (Homo sapiens, UniProt P06239); assay: Inhibition of in vitro binding of lck SH2 domain to its cognate pYEEI peptide (BIAcore 2000); conditions: IC50 class for inhibition of GST-lckSH2 binding to immobilized biotinylated […]pYEEIPI peptide; read-out: BOND DEGREE WITH SH2 OF 1ck
T1 construct: GST (Glutathione transferase)-fused lck SH2 domain
T1 sequence (P06239 127-224 limits assumed): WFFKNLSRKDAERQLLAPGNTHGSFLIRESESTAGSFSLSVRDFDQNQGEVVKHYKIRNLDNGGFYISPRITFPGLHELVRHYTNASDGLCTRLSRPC
Experimental: The present inventors investigated the inhibition activity of phenyl derivatives on the interaction of GST (Glutathione transferase)-fused lck SH2 domain and a peptide […]pYEEIPI (comprising the sequence PYEEI, a cognate peptide of Lck SH2) by using a real time sensorgram (BIAcore 2000).
At first, the biotinylated peptide was fixed on the surface of BIAcore analysis apparatus and then GST-lckSH2 protein was injected over the surface of the immobilized peptides. The binding of GST-lck SH2 with the peptide is represented as the resonance units (referred as “RU” hereinafter) and 1,000 RU corresponds to a change in surface concentration of 1 ng/mm^2. The binding of GST-lck with the fixed peptide causes the change of refractory index, leading to the increase of RU. In the mean time, when the binding of GST-lck with the fixed peptide is inhibited, RU decreases. Those results are represented in Table 1.

[2] = test system: IL-2 promoter; assay: IL-2 promoter luciferase reporter assay in anti-CD3 activated Jurkat cells; format: cell-based; conditions: Homo sapiens, TCR-induced (anti-CD3) IL-2 promoter luciferase, 2 h pre-incubation
Experimental: In order to confirm whether the compounds of the invention can pass through a cell membrane and inhibit the expression of IL-2 gene leading to T-cell proliferation, the present inventors firstly confirmed T-cell activity by detecting the activity of the luciferase fused on the downstream of IL-2 promoter.
To investigate the activity of IL-2 promoter, Jurkat cells (1×10^6) were transfected with a IL-2 reporter plasmids using Superfect™ (Qiagen Inc.). After 24 hours of transfection, Jurkat cells were pre-incubated with compounds of various concentrations (1 uM-50 uM) for 2 hours and further cultured on 35mm plate pre-coated with 5 ug/ml of anti-CD3 antibody, resulting in T cell activation. The luciferase activity was measured using Berthold luminometer LB953. The IC50 (50% inhibition concentration) of the compounds of the invention on TCR-induced IL-2 promoter activation are shown in Table 2.

[3] = test system: skin allograft rejection; assay: Inhibition of skin allograft rejection (Balb/c tail skin grafted onto C57BL/6 mouse); format: in vivo; conditions: 100 mg/kg/day into abdominal cavity from day of transplantation until complete rejection
Experimental: For the experiment, allogeneic Balb/c(H-2d) mouse-tail skin was grafted onto C57BL/6(H-2b) mouse. Generally 7-8 mice were assigned to each group. All the phenyl derivatives were dissolved in 100% ethanol, mixed with olive oil, and adjusted to the final concentration of ethanol therein less than 5%. […] Meanwhile, for the group of untreated mice, an olive oil-ethanol mixture was administered as a control. The grafted skin was monitored daily after the removal of the bandage on days 7-9. Rejection was defined as more than 80% necrosis of the graft epithelium.

[4] = test system: collagen-induced rheumatoid arthritis; assay: Inhibition of collagen-induced rheumatoid arthritis in DBA1/LacJ mice; format: in vivo, mouse; design: key: sum of 4 leg scores (0-4 each), max 16; conditions: 50 mg/kg/day i.p. daily; day 15 after treatment (day 36 after primary immunization); sum of scores of four legs, maximum 16; mean ± standard deviation
Experimental: After 2 weeks, booster immunization was carried out with 50 μg C II/IFA. From the 3rd week after primary immunization, compounds of the present invention were injected daily into peritoneal cavities of 6-8 mice per group for 15-20 days.
The vehicle control groups were injected daily with 100 μl of 5% ethanol-olive oil mixture in total 15-20 times. Widely used anti-rheumatic drug, Methotrexate, was dissolved in PBS and then injected to mice at 1 mg/kg/day every other day in total 8-10 times. Meanwhile, the compounds of the invention were dissolved in ethanol and then mulsified in olive oil, in which the final ethanol concentration was adjusted to 5% and the compounds of this invention was 50 mg/kg/day.
From the 3rd week after primary immunization, the extent of edema and the joint swelling was monitored everyday to determine arthritic index. Arthitic index is the sum of the arthritic scores of all 4 legs and, therefore, maximum arthritis index of 16 can be achieved (e.g., [4 (maximum arthritic score)/leg]×[4 legs/mouse]=16 (maximum arthritis index/mouse)). […] was presented by the mean arthritis index±standard deviation of each mouse group.

| SMILES | pIC50 [1] | pIC50 [2] | Survival time of skin graft tissue (days ± variance) [3] [days] | Arthritis index [4] |
| --- | --- | --- | --- | --- |
| CCCOC(=O)[C@H](Cc1ccc(O)c(O)c1)NC(=O)/C=C/c1ccc(O)c(O)c1 [Example 11, 3-(3,4-dihydroxy-phenyl)-(S)-2-[3-trans-(3,4-dihydroxy-phenyl)-acryloylamino]-propionic acid propyl ester] | 4.60 to 5.00 | 5.31 | 14.4 ± 0.9 | 6.1 ± 1.3 |
| CC(C)OC(=O)[C@H](Cc1ccc(O)c(O)c1)NC(=O)/C=C/c1ccc(O)c(O)c1 [Example 12, 3-(3,4-dihydroxy-phenyl)-(S)-2-[3-trans-(3,4-dihydroxy-phenyl)-acryloylamino]-propionic acid isopropyl ester] | 4.60 to 5.00 | 5.02 | 15.7 ± 0.8 | 5.1 ± 0.7 |
| CC(C)(C)OC(=O)[C@H](Cc1ccc(O)c(O)c1)NC(=O)/C=C/c1ccc(O)c(O)c1 [Example 13, 3-(3,4-dihydroxy-phenyl)-(S)-2-[3-trans-(3,4-dihydroxy-phenyl)-acryloylamino]-propionic acid tert-butyl ester] | 4.30 to 4.60 | 5.14 | 14.5 ± 0.6 | 6.9 ± 1.1 |
| NC(=O)[C@H](Cc1ccc(O)c(O)c1)NC(=O)/C=C/c1ccc(O)c(O)c1 [Example 14] | 4.60 to 5.00 | 5.16 | 15.3 ± 0.9 | 5.3 ± 1.2 |
| O=C(O)[C@H](Cc1ccc(O)c(O)c1)NC(=S)/C=C/c1ccc(O)c(O)c1 [Example 23, 3-(3,4-dihydroxy-phenyl)-(S)-2-[3-trans-(3,4-dihydroxy-phenyl)-thioacryloylamino]-propionic acid] | 4.30 to 4.60 | 4.80 | 13.2 ± 0.8 | 6.7 ± 0.8 |
| CCCOC(=O)[C@H](Cc1ccc(O)c(O)c1)NC(=S)/C=C/c1ccc(O)c(O)c1 [Example 25, 3-(3,4-dihydroxy-phenyl)-(S)-2-[3-trans-(3,4-dihydroxy-phenyl)-thioacryloylamino]-propionic acid propyl ester] | 4.60 to 5.00 | 5.01 | 14.8 ± 0.6 | 5.7 ± 0.4 |
| CC(C)(C)OC(=O)[C@H](Cc1ccc(O)c(O)c1)NC(=S)/C=C/c1ccc(O)c(O)c1 [Example 27, 3-(3,4-dihydroxy-phenyl)-(S)-2-[3-trans-(3,4-dihydroxy-phenyl)-thioacryloylamino]-propionic acid tert-butyl ester] | 4.30 to 4.60 | 4.70 | 12.3 ± 0.6 | 6.6 ± 1.1 |
| NC(=O)[C@H](Cc1ccc(O)c(O)c1)NC(=S)/C=C/c1ccc(O)c(O)c1 [Example 28, 3-(3,4-dihydroxy-phenyl)-(S)-2-[3-trans-(3,4-dihydroxy-phenyl)-thioacryloylamino]-propioneamide] | 4.60 to 5.00 | 4.85 | 13.9 ± 0.9 | 5.8 ± 0.6 |
| COC(=O)[C@H](Cc1ccc(O)c(O)c1)N(C)C(=O)/C=C/c1ccc(O)c(O)c1 [Example 36, 3-(3,4-dihydroxy-phenyl)-(S)-2-{[3-trans-(3,4-dihydroxy-phenyl)-acryloyl]-methyl-amino}-propionic acid methyl ester] | 4.30 to 4.60 | 4.82 | 12.9 ± 0.9 | 6.1 ± 1.9 |
| CCCOC(=O)[C@H](Cc1ccc(O)c(O)c1)N(C)C(=O)/C=C/c1ccc(O)c(O)c1 [Example 39, 3-(3,4-dihydroxy-phenyl)-(S)-2-{[3-trans-(3,4-dihydroxy-phenyl)-acryloyl]-methyl-amino}-propionic acid propyl ester] | 4.60 to 5.00 | 5.01 | 14.1 ± 1.2 | 5.7 ± 1.2 |
| CN(C(=O)/C=C/c1ccc(O)c(O)c1)[C@@H](Cc1ccc(O)c(O)c1)C(=O)OC(C)(C)C [Example 41, 3-(3,4-dihydroxy-phenyl)-(S)-2-{[3-trans-(3,4-dihydroxy-phenyl)-acryloyl]-methyl-amino}-propionic acid tert-butyl ester] | 4.30 to 4.60 | 4.80 | 13.7 ± 0.6 | 6.7 ± 1.6 |
| CN(C(=O)/C=C/c1ccc(O)c(O)c1)[C@@H](Cc1ccc(O)c(O)c1)C(N)=O [Example 42, N-[l-carbamoyl-2-(3,4-dihydroxy-phenyl)-ethyl]-(S)-3-trans-(3,4-dihydroxy-phenyl)-N-methyl-acrylamide] | 4.60 to 5.00 | 4.84 | 14.3 ± 0.9 | 5.1 ± 1.9 |
| O=C(/C=C/c1ccc(O)c(O)c1)NCCc1ccc(O)c(O)c1 [Example 43, 3-(3,4-dihydroxy-phenyl)-N-[2-trans-(3,4-dihydroxy-phenyl)-ethyl]-acrylamide] | 4.30 to 4.60 | 4.67 | 13.1 ± 0.9 | 6.0 ± 1.9 |
| CN(CCc1ccc(O)c(O)c1)C(=O)/C=C/c1ccc(O)c(O)c1 [Example 44, 3-(3,4-dihydroxy-phenyl)-N-[2-(3,4-dihydroxy-phenyl)-ethyl]-N-methyl-acrylamide] | 4.30 to 4.60 | 4.76 | 12.5 ± 0.9 | 6.8 ± 1.0 |
| O=C(/C=C/c1ccc(O)c(O)c1)N[C@H](Cc1ccc(O)cc1)C(=O)O [Example 46, (R)-2-[trans-3-(3,4-dihydroxy-phenyl)-acryloylamino]-3-(4-hydroxy-phenyl)-propionic acid] | 4.30 to 4.60 | 4.72 | 11.9 ± 0.9 | 6.1 ± 0.7 |
| COC(=O)[C@H](Cc1ccc(O)cc1)NC(=O)/C=C/c1ccc(O)c(O)c1 [Example 47, (S)-2-[trans-3-(3,4-dihydroxy-phenyl)-acryloylamino]-3-(4-hydroxy-phenyl)-propionic acid methyl ester] | 4.30 to 4.60 | 4.68 | 11.7 ± 1.0 | 6.9 ± 1.1 |
| O=C(/C=C/c1ccc(O)c(O)c1)N[C@@H](Cc1ccc(O)cc1)C(=O)O [Example 48, (S)-2-[trans-3-(3,4-dihydroxy-phenyl)-acryloylamino]-3-(4-hydroxy-phenyl)-propionic acid] | 4.30 to 4.60 | 4.65 | 12 ± 1.6 | 7.1 ± 0.4 |
| COC(=O)C(Cc1ccc(O)c(O)c1)NC(=O)NCc1ccc(O)c(O)c1 (stereo not shown) [Example 49, 2-[3-(3,4-dihydroxy-benzyl)-ureido]-3-(3,4-dihydroxy-phenyl)-propionic acid methyl ester] | 4.60 to 5.00 | 4.69 | 13 ± 1.5 | 5.1 ± 0.9 |
| COC(=O)C(Cc1ccc(O)c(O)c1)NC(=O)Cc1ccc(O)c(O)c1 (stereo not shown) [Example 50, 3-(3,4-dihydroxy-phenyl)-2-[2-(3,4-dihydroxy-phenyl)-acetylamino]-propionic acid methyl ester] | > 5.00 | 4.73 | 12.8 ± 0.9 | 4.8 ± 1.1 |
